Measured values: US20260256925A1, “INDAZOLE DERIVATIVES AS ESTROGEN RECEPTOR DEGRADERS” (REGENTS OF THE UNIVERSITY OF MICHIGAN, priority 2022, published 2026)
pIC50: −log10 of the molar value.

Key:
ER = molecular target: T1, ER (Homo sapiens, UniProt P03372); assay: In-cell western blot analysis, relative ER percentage (compounds B1-B126); type: cell-based; conditions: ER degradation, 16 hours, read-out: ICW DC50
T1 construct: endogenous in cells; probably T47D or MCF-7
T1 sequence (P03372 1-595): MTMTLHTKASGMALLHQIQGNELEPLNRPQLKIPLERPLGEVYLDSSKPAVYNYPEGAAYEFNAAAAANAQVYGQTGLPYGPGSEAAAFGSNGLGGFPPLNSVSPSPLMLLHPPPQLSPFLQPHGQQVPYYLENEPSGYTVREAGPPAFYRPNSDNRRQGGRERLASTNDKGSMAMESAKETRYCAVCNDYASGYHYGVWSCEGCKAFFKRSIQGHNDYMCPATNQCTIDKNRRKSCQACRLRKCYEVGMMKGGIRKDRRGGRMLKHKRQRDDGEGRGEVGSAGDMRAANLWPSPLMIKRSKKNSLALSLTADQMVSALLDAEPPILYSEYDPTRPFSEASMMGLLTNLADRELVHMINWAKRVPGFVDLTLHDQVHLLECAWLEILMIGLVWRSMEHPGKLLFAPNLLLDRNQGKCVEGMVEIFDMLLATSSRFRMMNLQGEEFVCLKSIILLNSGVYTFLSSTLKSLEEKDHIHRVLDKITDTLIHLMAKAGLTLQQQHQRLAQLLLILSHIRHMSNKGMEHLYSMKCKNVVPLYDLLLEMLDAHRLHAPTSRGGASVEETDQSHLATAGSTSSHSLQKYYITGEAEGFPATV
Procedure, shortened: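 Cells seeded at 40,000 or 10,000 per well overnight were treated with compound (final 0.5% DMSO) for 16 hours, then fixed with formaldehyde. ER was detected with primary antibodies and anti-rabbit-680/anti-mouse-800 secondaries on a CLX reader. Signal is expressed relative to untreated and DMSO wells set as 100%.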

[1] = Cell growth assay, WST-8 (compounds B1-B126); type: cell-based; conditions: 96 h; T47D cell line, WST-8, 4 days; read-out: Cell growth inhibition in T47D cell line IC50
Procedure, shortened: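 Cells seeded at 1500/well overnight, treated one day later with compound doses for 4 days, then 10% WST-8 added for 2.5 h at 37° C in CO2. Absorbance at 450 nm, expressed relative to vehicle control over three independent repeats.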

DC50 (ER) [nM] | SMILES | pIC50 [1]
10 to 100 | C[C@@H]1Cc2c(ccc3[nH]ncc23)[C@@H](c2ccc(N3CCC(CN4CCN5c6ccc(C(=O)N[C@H]7CCC(=O)NC7=O)nc6OC[C@H]5C4)CC3)cn2)N1CC(F)(F)F [Compound B90, (R)-N-((S)-2,6-dioxopiperidin-3-yl)-3-((1-(6-((6S,8R)-8-methyl-7-(2,2,2-trifluoroethyl)-6,7,8,9-tetrahydro-3H-pyrazolo[4,3-f]isoquinolin-6-yl)pyridin-3-yl)piperidin-4-yl)methyl)-1,2,3,4,4a,5-hexahydropyrazino[1,2-d]pyrido[2,3-b][1,4]oxazine-8-carboxamide] | 8.00 to 9.00
10 to 100 | C[C@H]1Cc2c(ccc3[nH]ncc23)[C@H](c2ccc(NC3CN(C(=O)CN4CCN5c6cc7c(cc6OC[C@@H]5C4)C(=O)N(C4CCC(=O)NC4=O)C7)C3)cn2)N1CC(F)(F)F (stereo partly drawn) [Compound B35, 3-((S)-3-(2-(3-((6-((6R,8S)-8-methyl-7-(2,2,2-trifluoroethyl)-6,7,8,9-tetrahydro-3H-pyrazolo[4,3-f]isoquinolin-6-yl)pyridin-3-yl)amino)azetidin-1-yl)-2-oxoethyl)-8-oxo-1,2,3,4,4a,5,8,10-octahydro-9H-pyrazino[1′,2′:4,5][1,4]oxazino[2,3-f]isoindol-9-yl)piperidine-2,6-dione] | < 8.00
> 100 | C[C@@H]1Cc2c(ccc3[nH]ncc23)[C@@H](c2ccc(N3CCC4(CC3)CC(CN3CCN5c6c(ccc7c6CN(C6CCC(=O)NC6=O)C7=O)OC[C@@H]5C3)C4)cn2)N1CC(F)(F)F (stereo partly drawn) [Compound B109, 3-((S)-9-((7-(6-((6S,8R)-8-methyl-7-(2,2,2-trifluoroethyl)-6,7,8,9-tetrahydro-3H-pyrazolo[4,3-f]isoquinolin-6-yl)pyridin-3-yl)-7-azaspiro[3.5]nonan-2-yl)mcthyl)-3-oxo-1,3,7,7a,8,9,10,11-octahydro-2H-pyrazino[1′,2′:4,5][1,4]oxazino[3,2-e]isoindol-2-yl)piperidine-2,6-dione] | 8.00 to 9.00
< 10 | COc1cc(N2CCC3(CC2)OCC(CN2CCN4c5ccc6c(c5OC[C@@H]4C2)CN([C@@H]2CCC(=O)NC2=O)C6=O)CO3)ccc1[C@@H]1c2ccc3[nH]ncc3c2C[C@@H](C)N1CC(F)F [Compound B116, (R)-3-((S)-7-((9-(4-((6S,8R)-7-(2,2-difluoroethyl)-8-methyl-6,7,8,9-tetrahydro-3H-pyrazolo[4,3-f]isoquinolin-6-yl)-3-methoxyphenyl)-1,5-dioxa-9-azaspiro[5.5]undecan-3-yl)methyl)-1-oxo-1,3,5,5a,6,7,8,9-octahydro-2H-pyrazino[1′,2′:4,5][1,4]oxazino[2,3-e]isoindol-2-yl)piperidine-2,6-dione] | > 9.00
> 100 | C[C@@H]1Cc2c(ccc3[nH]ncc23)[C@@H](c2ccc(N3CC4(CCC(CN5CCN6c7c(ccc8c7CN(C7CCC(=O)NC7=O)C8=O)OC[C@@H]6C5)CC4)C3)cn2)N1CC(F)(F)F (stereo partly drawn) [Compound B110, 3-((S)-9-((2-(6-((6S,8R)-8-methyl-7-(2,2,2-trifluoroethyl)-6,7,8,9-tetrahydro-3H-pyrazolo[4,3-f]isoquinolin-6-yl)pyridin-3-yl)-2-azaspiro[3.5]nonan-7-yl)methyl)-3-oxo-1,3,7,7a,8,9,10,11-octahydro-2H-pyrazino[1′,2′:4,5][1,4]oxazino[3,2-e]isoindol-2-yl)piperidine-2,6-dione] | 8.00 to 9.00
10 to 100 | C[C@@H]1Cc2c(ccc3[nH]ncc23)[C@@H](c2ccc(N3CCC4(CCN(C(=O)CN5Cc6cc7c(cc6C5)C(=O)N(C5CCC(=O)NC5=O)C7=O)CC4)CC3)cn2)N1CC(F)F (stereo partly drawn) [Compound B49, 6-(2-(9-(6-((6S,8R)-7-(2,2-difluoroethyl)-8-methyl-6,7,8,9-tetrahydro-3H-pyrazolo[4,3-f]isoquinolin-6-yl)pyridin-3-yl)-3,9-diazaspiro[5.5]undecan-3-yl)-2-oxoethyl)-2-(2,6-dioxopiperidin-3-yl)-6,7-dihydropyrrolo[3,4-f]isoindole-1,3(2H,5H)-dione] | < 8.00
